Among the data in US8623892B2, “Metalloenzyme inhibitor compounds” (Viamet Pharmaceuticals, Inc., priority 2010, dated 2014) are IC50 values, retold here.

One series addresses CYP17 (Rattus norvegicus (Rat), UniProt P11715). The series is described as follows: Inhibition of CYP17 (pooled rat testicular microsomes). The series is classed as biochemical. On the procedure:
CYP17 activity was assayed according to the following procedure. […] The individual test compound and isozyme inhibitor solutions were then diluted 20-fold with deionized water (50:950 v/v) to concentrations of 135, 27, 4.5, 0.9, 0.15, 0.03 and 0.005 μM. […] For active controls, blank test compound diluent was added in place of test compound solution.

The next series has as its target CYP2C9 (Homo sapiens (Human), UniProt P11712). The series is described as follows: Inhibition of liver cytochrome P450 enzymes (pooled human liver microsomes), CYP2C9. The following applies: read-out: CYP2C9 IC50. On the procedure: (§1) Solutions of each test compound were separately prepared at concentrations of 20000, 6000, 2000, 600, 200, and 60 μM by serial dilution with DMSO:MeCN (50:50 v/v). The individual test compound solutions were then diluted 20 fold with DMSO:MeCN:deionized water (5:5:180 v/v/v) to concentrations of 1000, 300, 100, 30, 10, and 3 μM. […] The percent of organic solvent attributable to the test compound or inhibitor mixture in the final reaction mixture was 2% v/v.
(§2) Pooled human liver microsome suspension (20 mg/mL) was diluted with phosphate buffer to obtain a 5 mg/mL suspension. A solution of NADPH was prepared in phosphate buffer at a concentration of 5 mM. Separate stock solutions of each substrate were prepared in DMSO:MeCN (50:50 v/v), mixed, and diluted in phosphate buffer to obtain a single solution containing each substrate at five times its experimentally determined Km concentration. […]
(§3) Substrate solution and microsome suspension were combined in a 1:1 volume ratio, mixed, and distributed to reaction wells of a PCR plate. […] A portion of the supernatant was analyzed by gradient reverse-phase HPLC with detection by electrospray ionization triple quadrupole mass spectrometry in the positive ion mode.
(§4) Data was fitted to sigmoid dose-response curves and the inhibitory potency of each test compound was determined as its IC50 value.

A further series addresses CYP2C19 (Homo sapiens (Human), UniProt P33261). The series is described as follows: Inhibition of liver cytochrome P450 enzymes (pooled human liver microsomes), CYP2C19. The settings on record: read-out: CYP2C19 IC50. On the procedure:
as §1, §2, §3, §4

CYP17, sequence (P11715 whole entry): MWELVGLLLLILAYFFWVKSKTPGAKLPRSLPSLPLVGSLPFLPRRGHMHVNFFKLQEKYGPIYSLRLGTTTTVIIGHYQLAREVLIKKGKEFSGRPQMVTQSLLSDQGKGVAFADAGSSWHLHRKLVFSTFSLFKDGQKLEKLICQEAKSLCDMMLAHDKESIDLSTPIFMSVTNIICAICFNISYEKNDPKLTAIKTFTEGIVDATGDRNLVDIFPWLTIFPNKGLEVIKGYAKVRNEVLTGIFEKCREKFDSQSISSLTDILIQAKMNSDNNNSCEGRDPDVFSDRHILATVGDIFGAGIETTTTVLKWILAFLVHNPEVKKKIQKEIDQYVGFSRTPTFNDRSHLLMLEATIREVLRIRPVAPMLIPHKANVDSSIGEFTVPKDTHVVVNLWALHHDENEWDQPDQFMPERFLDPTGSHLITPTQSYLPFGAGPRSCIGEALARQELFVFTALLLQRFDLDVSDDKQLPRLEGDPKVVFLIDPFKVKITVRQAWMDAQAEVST
CYP2C9, sequence (P11712 whole entry): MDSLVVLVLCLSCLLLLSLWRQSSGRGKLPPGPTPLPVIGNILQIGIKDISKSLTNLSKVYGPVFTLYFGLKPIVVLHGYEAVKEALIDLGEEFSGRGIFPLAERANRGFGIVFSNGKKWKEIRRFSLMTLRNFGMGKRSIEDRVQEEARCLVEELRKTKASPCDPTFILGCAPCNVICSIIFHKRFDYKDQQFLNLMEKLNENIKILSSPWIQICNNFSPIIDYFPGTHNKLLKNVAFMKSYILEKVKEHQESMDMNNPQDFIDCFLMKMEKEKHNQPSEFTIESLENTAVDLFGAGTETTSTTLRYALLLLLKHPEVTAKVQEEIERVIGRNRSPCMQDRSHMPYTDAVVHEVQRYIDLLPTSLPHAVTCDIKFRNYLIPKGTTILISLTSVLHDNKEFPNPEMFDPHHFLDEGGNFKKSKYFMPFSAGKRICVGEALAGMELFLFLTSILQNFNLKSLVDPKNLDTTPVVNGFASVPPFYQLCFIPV
CYP2C19, sequence (P33261 whole entry): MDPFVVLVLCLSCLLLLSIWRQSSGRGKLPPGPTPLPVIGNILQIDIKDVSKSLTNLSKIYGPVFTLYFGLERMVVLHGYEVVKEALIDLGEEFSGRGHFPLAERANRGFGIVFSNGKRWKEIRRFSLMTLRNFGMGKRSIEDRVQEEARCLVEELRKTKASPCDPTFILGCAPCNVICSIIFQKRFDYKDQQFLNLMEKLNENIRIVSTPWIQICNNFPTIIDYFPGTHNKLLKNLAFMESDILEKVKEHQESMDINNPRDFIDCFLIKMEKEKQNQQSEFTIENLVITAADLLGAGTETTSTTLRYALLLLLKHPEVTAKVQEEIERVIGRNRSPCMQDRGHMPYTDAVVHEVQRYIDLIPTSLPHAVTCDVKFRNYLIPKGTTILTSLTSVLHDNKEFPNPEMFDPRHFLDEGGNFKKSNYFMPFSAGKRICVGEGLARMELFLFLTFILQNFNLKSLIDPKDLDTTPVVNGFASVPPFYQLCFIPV

The term IC50 denotes the concentration that gives 50% inhibition. Consider `COc1cc2cnc(C(O)(c3c[nH]nn3)C(C)C)cc2cc1OC` (centres unmarked) [Example 2, 1-(6,7-Dimethoxyisoquinolin-3-yl)-2-methyl-1-(1H-1,2,3-triazol-4-yl)propan-1-ol], for which the IC50 against CYP17 is 0.96 µM.

`CC(=O)N1CCN(c2ccc(OCC3COC(Cn4ccnc4)(c4ccc(Cl)cc4Cl)O3)cc2)CC1` (centres unmarked) [Ketoconazole, reference compound] returned an IC50 against CYP17 of 0.4 µM.

For `CC(C)C(O)(c1ccc2cc(OC(F)F)c(OC(F)F)cc2c1)c1c[nH]nn1` (centres unmarked) [Example 3, 1-(6,7-Bis(difluoromethoxy)naphthalen-2-yl)-2-methyl-1-(1H-1,2,3-triazol-4-yl)propan-1-ol], the IC50 on CYP2C9 came to 12 µM; on CYP2C19, 19 µM.

As to `CC(C)C(O)(c1ccc2cc(-c3cnco3)ccc2c1)c1c[nH]nn1` (centres unmarked) [Example 4, 2-Methyl-1-(6-(oxazol-5-yl)naphthalen-2-yl)-1-(1H-1,2,3-triazol-4-yl)propan-1-ol], on CYP17, the IC50 is 0.51 µM.

`COc1cc2ccc(C(O)(c3c[nH]nn3)C(C)C)cc2cc1OC` (centres unmarked) [Example 1, 1-(6,7-Dimethoxynaphthalen-2-yl)-2-methyl-1-(1H-1,2,3-triazol-4-yl)propan-1-ol]: the IC50 on CYP2C9 turned out to be 39 µM; against CYP17, 0.18 µM; at CYP2C19, 33 µM.
